Experimental findings from publication PMC9186351, “Discovery of N-quinazolinone-4-hydroxy-2-quinolone-3-carboxamides as DNA gyrase B-targeted antibacterial agents” (Journal of Enzyme Inhibition and Medicinal Chemistry, 2022) are described below.

Molecules are shown by their SMILES. ≈ marks a conversion by molar mass, not a printed value. Where two headings read alike, the source gives them in different places.

Data set [1] has as its system methicillin-resistant S. aureus (MRSA). The experiment in a line: MIC by broth microdilution, MRSA strains. Type of data set: cell-based. The conditions noted are these: Staphylococcus aureus. Here is the method: (§1) All of the bacterial strains used in this study were obtained from the Collection Centre of Pathogen Microorganism of Chinese Academy of Medical Sciences (CAMS-CCPM-A) in China. All of the isolates were stored at −80 °C and streaked on tryptic soy agar (TSA) plates to obtain overnight cultures. The MICs of the test compounds were determined by the broth microdilution method in accordance with the Clinical and Laboratory Standards Institute (CLSI) guidelines.[20] Cation-adjusted Mueller-Hinton broth (CAMHB) was used as the growth medium for MIC assays. Briefly, 100 μL of serially diluted compounds (starting concentrations were 64 μg/mL) in CAMH broth were added to the wells of 96-well microtiter plates. Then, 10 µL of 5 × 10^6 CFU/mL bacterial culture was added to each well. […] The MIC was defined as the lowest concentration of a compound that inhibited visual growth of the bacteria. Vancomycin was set as the positive control for this assay.
(In general: Dilution methods test growth across graded concentrations, often in twofold steps.)

Data set [2] is described as follows: Mouse microsomal stability assay. Type of data set: in vitro ADME. The note with it: mouse, microsomes, pH 7.4. Here is the method:
The mouse liver microsomes were purchased from BioreclamationIVT and stored at −80 °C. The working solutions (0.2 mM) of the control compound, i.e. dextromethorphan, and the test compound dissolved in DMSO were prepared. Terfenadine (5 ng/mL) and tolbutamide (10 ng/mL) dissolved in acetonitrile were used as two quenching solutions. NADPH was dissolved in the phosphate buffer (50 mM K2HPO4, pH 7.4) at 5 mM. The mouse liver microsomes were thawed at 37 °C. The concentration of the stock solution was 20 mg/mL. The working solution (0.629 mg/mL) was prepared by dilution in phosphate buffer.
The working solution of the control/test compound (1.5 µL) was mixed with the liver microsome working solution (238.5 µL) in a 96-well plate and pre-incubated at 37 °C for 5 min. The 5 mM NADPH working solution (60 µL) was added to the solution to initiate the metabolic reaction. At each time point (0, 5, 15, 30, and 60 for the control/test compound), 30 µL of the reaction mixture was sampled and moved to 300 µL of quenching solutions. When the sampling was done, each sample was centrifuged at 4000 rpm at 4 °C for 15 min. The supernatant was analysed with the same HPLC system as the plasma stability assay. The residues (%) of the test/control compound along with the incubation time were calculated based on which the half-life (t1/2) value was determined.

The target of another data set is T1, S. aureus GyrB (Staphylococcus aureus, UniProt P0A0K8).
T1 construct: purchased Inspiralis Ltd., Norwich, UK
The experiment in a line: S. aureus GyrB (Gyrase ATPase) inhibition assay, ADP-Glo. Type of data set: biochemical. As for the experimental part:
The IC50 values for S. aureus GyrB were determined according to our previously reported protocol.[16] For this assay, the reaction mixture (10 μL) consisted of 5 nM S. aureus Gyrase (Inspiralis Ltd., Norwich, UK), assay buffer [40 mM HEPES-KOH (pH 7.6), 10 mM magnesium acetate, 10 mM dithiothreitol, 50 g/L BSA, and 500 mM potassium glutamate], the test compound (0.01–100 μM), 1% DMSO, 10 nM linear pBR322 DNA, and […]. The target compound was dissolved in DMSO (10 mM). A series of dilutions (0.1–1000 μM) were prepared from the stock solution with the assay buffer and DMSO. The dilutions (1 μL) were respectively added to the PCR tubes along with the buffer (7 μL), the linear pBR322 DNA (0.5 μL), S. aureus Gyrase (0.5 μL), and ATP (1 μL). The PCR tubes were sealed and incubated at 37 °C for 30 min. The ADP-Glo reagent (40 μL) was added to stop the reaction and use up the remaining ATP.
The detection reagent (50 μL) was then added and mixed. After 5 min, the mixture in each PCR tube was put in the well of a 96-well plate and its luminescence was measured by the BioTek Synergy 2 microplate reader. The activity values (%) of S. aureus Gyrase treated by the test compound at different concentrations were determined based on the luminescence. GraphPad Prism version 5 software (GraphPad Software Inc., La Jolla, CA) was used to calculate the IC50 values.
On the technique in general: ADP-Glo first removes unused ATP, then detects ADP through luciferase.

The nature of data set [3]: Cytotoxicity, SRB assay, HepG2. Type of data set: cell-based, human. The conditions noted are these: human, HepG2 cells, 72-h treatment (footnote), read-out: In vitro cytotoxicity CC50 (μM, mean ± SD). Here is the method:
(§2) Cytotoxicity in terms of CC50 was determined by the SRB assay according to the protocol described in our previous publication.[16] Briefly, human HUVECs or HepG2 cells were seeded in the wells of 96-well plates at a concentration of 1 × 10^5 cells per well and incubated at 37 °C for 24 h. […] The cells were fixed with 10% trichloroacetic acid (w/v) at 4 °C for 1 h, washed five times with distilled water, and stained with 0.4% SRB solution at room temperature for another 20 min. The cells were then washed five times with 1% acetic acid and air-dried. The protein-bound dye was dissolved in 10 mM Tris-base solution and shaken for 5 min. The optical density (OD) was measured at 540 nm using a microplate reader to estimate the cell viability (%). With the viability values (%) of the cells treated by the compound at different concentrations as input, the CC50 value was determined by the non-linear regression with normalised dose-response fit implemented in GraphPad Prism version 5 software (GraphPad Software Inc., La Jolla, CA). The experiment was performed in duplicate, and paclitaxel was used as the positive drug for this assay.

In a further data set the test system is HepG2 cells. The experiment in a line: Cytotoxicity, SRB assay, HepG2. Type of data set: cell-based, human. The conditions noted are these: 72-h treatment (footnote), read-out: In vitro cytotoxicity CC50 (μM, mean ± SD). Here is the method: as §2
Data set [4] has as its system vancomycin intermediate resistant S. aureus (VISA). In words: MIC by broth microdilution, VISA strains. The conditions noted are these: Staphylococcus aureus, read-out: MIC. Type of data set: cell-based. Here is the method:
as §1

T1 sequence (P0A0K8 whole entry): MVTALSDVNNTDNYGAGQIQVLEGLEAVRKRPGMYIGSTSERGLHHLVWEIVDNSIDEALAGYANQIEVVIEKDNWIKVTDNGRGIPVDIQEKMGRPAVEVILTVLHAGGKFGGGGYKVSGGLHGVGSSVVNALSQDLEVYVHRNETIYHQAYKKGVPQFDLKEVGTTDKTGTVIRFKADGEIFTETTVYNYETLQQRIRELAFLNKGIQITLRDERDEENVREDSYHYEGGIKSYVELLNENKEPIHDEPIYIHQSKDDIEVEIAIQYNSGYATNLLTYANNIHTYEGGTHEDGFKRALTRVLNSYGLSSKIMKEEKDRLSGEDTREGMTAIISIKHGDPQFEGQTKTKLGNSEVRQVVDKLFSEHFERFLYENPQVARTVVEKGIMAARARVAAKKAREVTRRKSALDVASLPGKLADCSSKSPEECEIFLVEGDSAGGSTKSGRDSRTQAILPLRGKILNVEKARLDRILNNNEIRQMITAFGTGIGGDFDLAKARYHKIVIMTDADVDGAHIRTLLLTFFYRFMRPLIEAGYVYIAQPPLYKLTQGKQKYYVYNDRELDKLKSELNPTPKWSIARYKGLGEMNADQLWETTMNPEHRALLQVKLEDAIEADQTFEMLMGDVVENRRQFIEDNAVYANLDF
T1 sequence (P20831 whole entry, further chain): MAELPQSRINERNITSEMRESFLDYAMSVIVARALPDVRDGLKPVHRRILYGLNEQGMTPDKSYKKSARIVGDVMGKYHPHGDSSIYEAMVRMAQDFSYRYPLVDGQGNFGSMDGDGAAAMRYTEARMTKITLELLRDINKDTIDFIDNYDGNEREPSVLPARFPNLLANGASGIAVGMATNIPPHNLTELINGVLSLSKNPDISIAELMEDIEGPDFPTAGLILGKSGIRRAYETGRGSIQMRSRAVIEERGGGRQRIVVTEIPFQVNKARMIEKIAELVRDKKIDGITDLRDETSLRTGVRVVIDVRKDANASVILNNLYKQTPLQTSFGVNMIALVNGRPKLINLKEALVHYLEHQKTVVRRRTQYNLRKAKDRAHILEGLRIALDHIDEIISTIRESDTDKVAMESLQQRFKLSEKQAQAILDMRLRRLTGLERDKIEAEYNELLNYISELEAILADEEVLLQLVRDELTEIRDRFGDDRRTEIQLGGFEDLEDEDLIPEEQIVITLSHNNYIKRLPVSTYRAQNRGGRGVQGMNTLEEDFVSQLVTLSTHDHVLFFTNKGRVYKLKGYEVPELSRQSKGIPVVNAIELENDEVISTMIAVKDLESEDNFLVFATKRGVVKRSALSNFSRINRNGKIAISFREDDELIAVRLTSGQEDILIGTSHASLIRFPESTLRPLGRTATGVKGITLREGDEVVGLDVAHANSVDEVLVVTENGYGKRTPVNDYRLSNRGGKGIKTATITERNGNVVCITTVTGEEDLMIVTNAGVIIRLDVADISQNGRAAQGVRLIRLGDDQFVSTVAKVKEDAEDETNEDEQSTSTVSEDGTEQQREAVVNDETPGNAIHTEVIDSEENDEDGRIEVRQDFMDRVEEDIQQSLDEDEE

The half-life is how long it takes for the measured level to halve. Higher therefore signals slow loss. By IC50 is commonly meant the midpoint of a concentration-inhibition curve. What is called inhibition is how much of the control response was suppressed. What is called CC50 is the concentration giving 50% cytotoxicity. With `CCCCCc1nc2ccccc2c(=O)n1NC(=O)c1c(O)c2ccccc2n(CC)c1=O` [f1, N-(4-oxo-2-pentylquinazolin-3(4H)-yl)-1-ethyl-4-hydroxy-2-oxo-1,2-dihydroquinoline-3-carboxamide], the MIC is 4 µg/mL (≈ 8.96 µM) in data set [1] (ATCC 33591 / MRSA, MRSA ATCC 33591, read-out: MIC); 4 µg/mL (≈ 8.96 µM) in data set [1] (ATCC 43300 / MRSA, MRSA ATCC 43300, read-out: MIC); 8 µg/mL (≈ 17.9 µM) in data set [1] (MRSA 18-2, read-out: MIC); 4 to 8 µg/mL (≈ 8.96 to 17.9 µM) in data set [1] (span over MRSA strains, read-out: MICs against MRSA); 8 µg/mL (≈ 17.9 µM) in data set [4] (ATCC 700699 / VISA, VISA ATCC 700699); 4 µg/mL (≈ 8.96 µM) in data set [4] (VISA, VISA HIP 5827). Besides, in data set [4] (VISA, VISA HIP 5836), the MIC stood at 16 µg/mL (≈ 35.8 µM). In data set [2], this compound had a half-life at 1 µM of 24.5 min. Also, the IC50 at S. aureus GyrB (IC50 for GyrB (µM, mean ± SD), S. aureus Gyrase ATPase inhibition, average of duplicates) is 1.21 ± 0.13 µM. Besides, the inhibition at 10 µM at S. aureus GyrB (read-out: GyrB inhibition rate (%) at 10 μM) came out at 72%. The CC50 at 72 h in data set [3] is roughly 50 µM. Also, the CC50 in the data set on HepG2 cells turned out to be 49.6 ± 0.2 µM.
